Experimental data: paper PMC9963937, “Synergistic Combination of Irinotecan and Rapamycin Orally Delivered by Nanoemulsion for Enhancing Therapeutic Efficacy of Pancreatic Cancer” (Pharmaceutics, 2023)
Where two headings read alike, the source gives them in different places.

What was measured:
[1] = In vitro release from LBSNENP, USP Apparatus 2 dissolution; type: physicochemical; conditions: endpoint (60 min)
Protocol: The contents of irinotecan and rapamycin in LBSNENPir and LBSNENPra were detected through HPLC. To determine the irinotecan content, we used the Waters 600E HPLC system with the SunFire C18 column (4.6 mm × 250 mm I.D., 5 μm; Waters). The mobile phase consisted of 10 mM phosphate buffer (pH 3.0)/acetonitrile/tetrahydrofuran (65/35/2 v/v), the flow rate was 0.8 mL/min, the column was maintained at 40 °C, the injection volume was 20 µL, and the fluorescence detector was set at the excitation and emission wavelengths of 370 and 470 nm, respectively. To determine the rapamycin content, we used the JASCO HPLC system with the Inersil ODS-2 C18 column (4.0 mm × 150 mm I.D., 5 μm). The mobile phase was a mixture of acetonitrile and water (20/80 v/v), the flow rate was 1.0 mL/min, the column was maintained at 55 °C, the injection volume was 100 µL, and the UV detector was set at the wavelength of 278 nm. Each data point came from the mean of at least three individual trials. The assay method was also well validated before. […]
The in vitro release of irinotecan and rapamycin from LBSNENP was examined using the dissolution method on United States Pharmacopeia (USP) Apparatus 2 (VK7000, Vankel, UK). […] The contents of irinotecan and rapamycin were determined through HPLC as described in the earlier text. […]

[2] = tested on: MIA PaCa-2 pancreatic cancer cell line; assay: MTT cell viability assay; type: cell-based; conditions: Homo sapiens, read-out: IC50 against MIA PaCa-2 cells
Protocol: To evaluate the cytotoxicity and combination effects of rapamycin and silymarin as well as free irinotecan, we performed the 3-(4,5-dimethylthiazol-2-yl)-2,5-diphenyl-2H-tetrazolium bromide (MTT) assay by using the MIA PaCa-2 pancreatic cancer cell line. Briefly, the cells were seeded in a 96-well plate at a density of 3 × 10^4 cells/well and incubated at 37 °C with 5% CO2 for 24 h. After 24 h, the cells were treated with different concentrations of free irinotecan (0–300 µM), rapamycin (0–300 µM), SN38 (0–300 nM), and silymarin (0–1000 µM). To determine the combination effect, the cells were treated with different ratios of irinotecan/rapamycin and SN38/rapamycin (1/0.3, 1/0.5, 1/1, and 1/2) and irinotecan/silymarin and SN38/silymarin (1/1 and 1/2). All the cells were incubated with the drugs for 24–48 h. Then, the MTT reagent and dimethyl sulfoxide were added for the formation and the dissolution of purple formazan crystals. The absorbance of each well was measured at 550 nm on a Cytation 3 cell imaging multimode reader (BioTek, Winooski, VT, USA). The half-maximal inhibitory concentration (IC50) and combination index (CI) of the drugs were calculated using CompuSyn Sofware (Paramus, NJ, USA) through the Chou–Talalay method. In the Chou–Talalay method, the CI values of <0.9, >1.1, and 0.9–1.1 indicated synergistic, antagonistic, and additive effects, respectively. Each data point was the mean of at least six individual experiments.

dissolution percentage of raw irinotecan powder at the endpoint ([1]; buffer pH 1.2, 37 °C, 50 rpm)	IC50 ([2]; MIA PaCa-2, 24 h)	IC50 ([2]; MIA PaCa-2, 48 h)	dissolution percentage of raw rapamycin powder at the endpoint ([1]; 0.4% sodium lauryl sulfate solution, 37 °C, 100 rpm)	SMILES
approximately 63%	4.78 ± 9.42 µM	12.2 ± 4.56 µM		CCc1c2c(nc3ccc(OC(=O)N4CCC(N5CCCCC5)CC4)cc13)-c1cc3c(c(=O)n1C2)COC(=O)[C@]3(O)CC [irinotecan, Irinotecan]
	2.98 ± 0.97 µM	3.88 ± 1.17 µM	~32%	CO[C@H]1C[C@@H]2CC[C@@H](C)[C@@](O)(O2)C(=O)C(=O)N2CCCC[C@H]2C(=O)O[C@H]([C@H](C)C[C@@H]2CC[C@@H](O)[C@H](OC)C2)CC(=O)[C@H](C)/C=C(\C)[C@@H](O)[C@@H](OC)C(=O)[C@H](C)C[C@H](C)/C=C/C=C/C=C/1C [rapamycin, Rapamycin]
